From article PMC11400633, “Peptides inhibiting the assembly of monomeric human L‐lactate dehydrogenase into catalytically active homotetramer decrease the synthesis of lactate in cultured cells” (Protein Science : A Publication of the Protein Society, 2024)
Where “and” joins values, the source holds several entries; their conditions need not be identical. Identical values can stand only once. Like-named read-outs stand apart in the source and are kept apart here. Values belong to the molecule of their own block, whether it stands above or below them. [ ]: non-standard residue; d: D form. The star is where a group is joined. OBn = c1ccc(CO*)cc1

What was measured:
tetrameric LDH‐A [1] = target: T1, tetrameric LDH‐A (Homo sapiens, UniProt P00338); conditions: previous observation, cited from earlier work
T1 construct: made in house; host or cells: E. coli BL21(DE3), pET9a (NdeI/BamHI)
Description: Accordingly, monomeric LDH‐A features a rather high K m for pyruvate and, as previously mentioned, we interpret this feature as indicative of a secondary site for pyruvate, possibly engaged in the stabilization of the assembled tetramer.

monomeric human LDH‐A [2] = target: T2, monomeric human LDH‐A (Homo sapiens, UniProt P00338); assay: Steady-state kinetics of pyruvate reduction by monomeric LDH-A (assembled monomers); type: biochemical; conditions: variable pyruvate, 125 μM β-NADH, 9.80 nM monomer, pH 7.5, 25°C
T2 construct: made in house; host or cells: E. coli BL21(DE3), pET9a (NdeI/BamHI)
Protocol: (§1) To further characterize the catalytic action of monomeric LDH-A exposed to β-NADH and pyruvate, and therefore assembled into tetramer (cf. […] In addition, the kinetics of pyruvate reduction catalyzed by tetrameric LDH-A was assayed under the same conditions used for the monomeric enzyme. Structurally and functionally speaking, the availability of monomeric LDH-A does indeed provide an unprecedented and quite interesting tool to perform quantitative tests of the assembly of monomers into the corresponding catalytically active tetramer. […] In addition to this, the enzyme kinetic parameters were also determined testing reaction velocity as a function of β-NADH concentration, in the presence of 500 μM pyruvate. […] The continuous lines represent the best fit of the Michaelis-Menten equation to the experimental observations. […] The continuous lines represent the best fit of the Michaelis-Menten equation to the experimental observations. (c) Kinetic parameters determined by performing activity assays using monomeric or tetrameric LDH-A, at the indicated final concentrations. Under conditions of variable pyruvate concentration, β-NADH was always used at 125 μM. When reaction mixtures contained variable concentrations of the redox cofactor, pyruvate was invariably added at 500 μM. All the assays were performed at pH 7.5 (Tris-BisTris, 10 mM each.

tetrameric LDH‐A [3] = target: T1, tetrameric LDH‐A; assay: Steady-state kinetics of pyruvate reduction by tetrameric LDH-A; type: biochemical; conditions: variable pyruvate, 125 μM β-NADH, 2.56 nM tetramer, pH 7.5, 25°C
Protocol: as §1

monomeric human LDH‐A [4] = target: T2, monomeric human LDH‐A; assay: Inhibition by peptides of LDH-A activity gained on assembly of monomeric LDH-A into tetramer; type: biochemical; conditions: 80 μM peptide incubated 5 min with 6.2 nM monomeric LDH-A, 10 mM Tris-HCl + 10 mM BisTris pH 7.5, started with 125 μM β-NADH and 500 μM pyruvate, 25°C, A340, vs control with 1% DMSO, mean ± SD, n = 3
Protocol: (§2) In particular, all the peptides were tested at 80 μM (final concentration), and the LDH activity detected in their presence was compared with the catalytic action observed with control samples devoid of any peptide. First, we decided to assay the octameric peptide TH1, the primary structure of which ([…]) is identical to the LDH‐A region spanning residues 295–302. […] Indeed, the catalytic action exerted by 6 nM tetrameric LDH‐A (in 10 mM Tris–HCl, pH 7.5, containing 150 mM NaCl) was determined as equal to 433 ± 11 and 452 ± 19 nM/s in the absence and in the presence of 80 μM TH1 octapeptide, respectively. Overall, this insensitivity along with the significant effect elicited by TH1 on monomeric LDH‐A indicate that the octapeptide inhibits the assembly of LDH‐A monomers into the corresponding, catalytically active, tetramer. To dissect the inhibition triggered by TH1 on monomeric LDH‐A, we decided to evaluate: (i) whether or not the two halves of the octapeptide, that is, GQNG and ISDL, are equally competent in inhibiting LDH‐A; (ii) the action of linear and cyclic peptides, containing or not D amino acids; and (iii) the effect, if any, triggered by the presence of protecting groups in the peptides to be assayed. It should be noted that to allow the cyclization of tetrapeptide GQNG while maintaining a terminal carboxylic group, the sequence was modified to GQND, while for the cyclization of ISDL while maintaining a terminal amino group, the sequence was modified into KSDL (Table 1).
FIGURE 8 Inhibition exerted by linear and cyclic peptides on LDH‐A activity detected in vitro. […] The gray bars (in “a” and “d”) represent the activity observed in the presence of the same volume of DMSO (1%, v/v) carried to the assay mixtures by the peptides to be tested. (a–c) The effect, if any, of tetrameric peptides featuring the GQND primary structure (see also Table 1) on LDH‐A activity is shown. The inhibition exerted by the octameric peptide TH1 is also reported in “a.” The enzyme activity observed in the presence of linear or cyclic peptides is shown in “b” and “c”, respectively. (d) Extent of LDH‐A activity detected in the presence of linear or cyclic tetrapeptides featuring the KSDL primary structure. Error bars represent SD (n = 3). The experimental observations were compared by Student's t‐test. The ***, **, and * symbols denote p values lower than 0.001, 0.01, and […], respectively. (e) Simulation of the association between the TH2 peptide and monomeric LDH‐A. Predicted interactions between the cyclopeptide c[GQN‐isoD] (TH2) and the N‐terminal sequence Y^9[…]^19, as simulated by molecular dynamics in a box of explicit TIP3P water molecules; gray and red dotted lines represent hydrogen bonds and salt bridges, respectively.
All the assays were performed at 25°C using a Cary 300 Bio spectrophotometer.

MCF7 cells = assay: Colorimetric assay of lactate secretion by MCF7 cells (expressing LDH-A); type: cell-based, human; conditions: for decrease of the concentration of secreted lactate: MCF7, 80 μM peptide with Lipofectamine 2000 (0.5% v/v), 1% DMSO, Krebs-Ringer buffer, 4 h, 37°C, colorimetric, n = 3, vs cells without peptide
Description: Having identified peptides able to interfere with the assembly of monomeric LDH‐A into catalytically active tetramer, we considered of interest to test the action of peptides against LDH‐A expressed in human cell lines. In particular, we analyzed the lactate secreted by cultured human cells exposed or not to the peptides better performing as inhibitors of LDH‐A in vitro, that is, TH1, TH2, and TH16. Moreover, we used two different cell lines exclusively expressing LDH‐A or LDH‐B, that is, MCF7 and BxPC3, respectively. In MCF7 cells, the [mRNALDH‐A]/[mRNALDH‐B] ratio is indeed equal to ca. 150 (Figure 9a), whereas in BxPC3 cells the messenger coding for LDH‐A was not detected (Figure 9a). Therefore, by comparing the decrease, if any, of the lactate concentration secreted by these two cell lines the selectivity of peptides acting against LDH‐A or LDH‐B can be conveniently estimated. When the MCF7 cell line is considered, the linear TH16 and the cyclic TH2 tetrapeptide performed equally, being both responsible for a concentration of secreted lactate 20% lower than that detected in their absence (Figure 9b). […] Accordingly, it seems likely that lipofectamine is effective in assisting the penetration of the TH16 and TH2 peptides into cells, with this action of lipofectamine being much weaker when dealing with a larger molecule, that is, an octapeptide.
To evaluate the competence of peptides in inhibiting the action of LDH‐A in cultured cells, two human cell cultures were used: MCF7 and BxPC3, isolated from breast and pancreatic adenocarcinoma, respectively. Cultures were grown in DMEM (MCF7) or RPMI medium (BxPC3), supplemented with 100 U/ml penicillin/streptomycin, 2 mM glutamine and 10% (v/v) FBS. All the components of the media used for cell culture were obtained from Merck‐Millipore.
The competence of peptides in inhibiting LDH in cultured cells was tested by assessing the concentration of lactate released by MCF7 and BxPC3 cell cultures. To this aim, cells were seeded in duplicate in 24‐wells plates (2 × 10^5/well) and let to adhere overnight; the culture medium was then replaced by Krebs‐Ringer buffer (300 μl/well). Stock solutions of peptides (8 mM in DMSO) were diluted in Krebs‐Ringer buffer to a final concentration of 640 μM and mixed with an equal volume of 4% (v/v, in Krebs‐Ringer buffer) Lipofectamine 2000 (Invitrogen). The final solution was thoroughly mixed, kept for 25 min at room temperature, and finally 100 μl were added to each plate well, obtaining a final peptide concentration equal to 80 μM. The concentration of lactate released in the Krebs–Ringer buffer was determined after 4 h of incubation at 37°C, using the colorimetric assay previously reported (Rossi et al., [2023]). Each experiment was performed in triplicate and included control samples consisting of untreated cell cultures exposed to the same final concentration of DMSO (1%, v/v) and Lipofectamine (0.5%, v/v) to which were exposed the samples treated with peptides.

tetrameric LDH‐A [5] = target: T1, tetrameric LDH‐A; assay: Activity assay of tetrameric LDH-A in the presence of peptide; type: biochemical; conditions: 6 nM tetrameric LDH-A, 10 mM Tris-HCl pH 7.5, 150 mM NaCl, 80 μM peptide
Protocol: as §2, with “It should be noted that to allow the cyclization of tetrapeptide GQNG while maintaining a terminal carboxylic group, the sequence was modified to GQND, while for the cyclization of ISDL while maintaining a terminal amino group, the sequence was modified into KSDL (Table 1).” left out

BxPC3 cells = assay: Colorimetric assay of lactate secretion by BxPC3 cells (expressing LDH-B); type: cell-based, human; conditions: BxPC3, 80 μM peptide with Lipofectamine 2000 (0.5% v/v), 1% DMSO, Krebs-Ringer buffer, 4 h, 37°C, n = 3
Description: Having identified peptides able to interfere with the assembly of monomeric LDH‐A into catalytically active tetramer, we considered of interest to test the action of peptides against LDH‐A expressed in human cell lines. In particular, we analyzed the lactate secreted by cultured human cells exposed or not to the peptides better performing as inhibitors of LDH‐A in vitro, that is, TH1, TH2, and TH16. Moreover, we used two different cell lines exclusively expressing LDH‐A or LDH‐B, that is, MCF7 and BxPC3, respectively. In MCF7 cells, the [mRNALDH‐A]/[mRNALDH‐B] ratio is indeed equal to ca. 150 (Figure 9a), whereas in BxPC3 cells the messenger coding for LDH‐A was not detected (Figure 9a). Therefore, by comparing the decrease, if any, of the lactate concentration secreted by these two cell lines the selectivity of peptides acting against LDH‐A or LDH‐B can be conveniently estimated. When the MCF7 cell line is considered, the linear TH16 and the cyclic TH2 tetrapeptide performed equally, being both responsible for a concentration of secreted lactate 20% lower than that detected in their absence (Figure 9b). […] It should indeed be noted that the assays with cells were performed in the presence of lipofectamine (see Section 5). […] Accordingly, it seems likely that lipofectamine is effective in assisting the penetration of the TH16 and TH2 peptides into cells, with this action of lipofectamine being much weaker when dealing with a larger molecule, that is, an octapeptide.
To evaluate the competence of peptides in inhibiting the action of LDH‐A in cultured cells, two human cell cultures were used: MCF7 and BxPC3, isolated from breast and pancreatic adenocarcinoma, respectively. […]
The competence of peptides in inhibiting LDH in cultured cells was tested by assessing the concentration of lactate released by MCF7 and BxPC3 cell cultures. […] The concentration of lactate released in the Krebs–Ringer buffer was determined after 4 h of incubation at 37°C, using the colorimetric assay previously reported (Rossi et al., [2023]). […]

Molecule: H-GQND(OBn)-OH (SMILES NCC(=O)N[C@@H](CCC(N)=O)C(=O)N[C@@H](CC(N)=O)C(=O)N[C@@H](CC(=O)OCc1ccccc1)C(=O)O) [TH14]
Inhibition (%) of LDH‐A activity (monomeric human LDH‐A [4]): 15 ± 4%

Molecule: H-GQND-OBn (SMILES NCC(=O)N[C@@H](CCC(N)=O)C(=O)N[C@@H](CC(N)=O)C(=O)N[C@@H](CC(=O)O)C(=O)OCc1ccccc1) [TH6]
Inhibition (%) of LDH‐A activity (monomeric human LDH‐A [4]): 14 ± 7%

Molecule: H-GQNGISDL-OH [TH1]
decrease of the concentration of secreted lactate (MCF7 cells): did not induce any significant effect | inhibition of tetrameric LDH‐A activity (in words) (tetrameric LDH‐A [5]): no significant inhibition | catalytic action exerted by tetrameric LDH‐A in the presence of peptide (tetrameric LDH‐A [5]; without peptide 433 ± 11 nM/s): 452 ± 19 nM/s | Inhibition (%) of LDH‐A activity (monomeric human LDH‐A [4]): 36 ± 1% | effect on lactate secretion (BxPC3 cells): did not induce any significant effect

The next lines start with results.

K m for pyruvate, monomeric LDH‐A (assembled monomers) (monomeric human LDH‐A [2]): 561 ± 74 µM and 560 µM | K m for pyruvate, tetrameric LDH‐A (tetrameric LDH‐A [3]): 271 ± 40 µM and 271 µM
Molecule: CC(=O)C(=O)O [pyruvate]
K m for pyruvate, tetrameric enzyme (tetrameric LDH‐A [1]; ref Pasti et al., 2022): 252 µM | K m for pyruvate, tetrameric enzyme (tetrameric LDH‐A [1]; ref Pettit et al., 1981): 398 µM

Inhibition (%) of LDH‐A activity (monomeric human LDH‐A [4]): 4 ± 3%
Molecule: H-KSD[dL]-OH (SMILES CC(C)C[C@@H](NC(=O)[C@H](CC(=O)O)NC(=O)[C@H](CO)NC(=O)[C@@H](N)CCCCN)C(=O)O) [TH19]

Inhibition (%) of LDH‐A activity (monomeric human LDH‐A [4]): 22 ± 2%
Molecule: H‐Gly‐Gln‐Asn‐Asp‐OH [TH16]
decrease of the concentration of secreted lactate (MCF7 cells): 20% | effect on lactate production in the absence of lipofectamine (MCF7 cells; MCF7, peptide without lipofectamine): negligible and not significant effects | effect on lactate secretion (BxPC3 cells): no significant differences

Inhibition (%) of LDH‐A activity (monomeric human LDH‐A [4]): 5 ± 6%
Molecule: H‐Lys‐Ser‐Asp‐Leu‐OH [TH18]
